Laboratory results taken from publication PMC5826766 (Molecular pharmaceutics, 2018).

Target: hPHT1 (human peptide/histidine transporter 1, SLC15A4) (Homo sapiens, UniProt Q8N697, L14A/L15A/L318A/V319A)
Assay: inhibition of MDP uptake in hPHT1mut cells at […], mock-subtracted
Assay type: cell-based
Conditions: read-out: % inhibition at 2 mM

hPHT1 (human peptide/histidine transporter 1, SLC15A4), sequence (Q8N697 whole entry L14A/L15A/L318A/V319A): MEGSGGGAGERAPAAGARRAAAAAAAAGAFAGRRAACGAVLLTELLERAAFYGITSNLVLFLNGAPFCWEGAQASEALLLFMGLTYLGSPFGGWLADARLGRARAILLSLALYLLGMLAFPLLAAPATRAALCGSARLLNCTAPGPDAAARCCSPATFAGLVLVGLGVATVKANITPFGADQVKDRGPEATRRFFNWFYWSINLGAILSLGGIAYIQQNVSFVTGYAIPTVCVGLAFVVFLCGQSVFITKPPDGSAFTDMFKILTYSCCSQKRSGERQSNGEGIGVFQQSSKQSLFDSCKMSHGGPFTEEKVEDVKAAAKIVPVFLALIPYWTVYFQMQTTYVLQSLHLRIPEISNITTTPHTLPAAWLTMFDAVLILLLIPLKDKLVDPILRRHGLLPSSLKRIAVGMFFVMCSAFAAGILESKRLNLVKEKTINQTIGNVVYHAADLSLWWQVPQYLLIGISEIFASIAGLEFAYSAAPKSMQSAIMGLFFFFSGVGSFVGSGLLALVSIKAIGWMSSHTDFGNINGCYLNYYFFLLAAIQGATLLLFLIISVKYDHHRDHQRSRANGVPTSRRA

| SMILES | inhibition at 2000 µM |
| --- | --- |
| C[C@H](CS)C(=O)N1CCC[C@H]1C(=O)O [captopril] | 70 to 85% |
| CC1=C(C(=O)O)N2C(=O)[C@@H](NC(=O)[C@H](N)c3ccc(O)cc3)[C@H]2SC1 [cefadroxil] | 70 to 85% |
| CC1=C(C(=O)O)N2C(=O)[C@@H](NC(=O)[C@H](N)C3=CCC=CC3)[C@H]2SC1 [cephradine] | 70 to 85% |
| NCCCC[C@H](N[C@@H](CCc1ccccc1)C(=O)O)C(=O)N1CCC[C@H]1C(=O)O [lisinopril] | 70 to 85% |
